Assay results taken from patent US8802597B2, “Herbicidal pyrimidines” (E I du Pont de Nemours and Company, priority 2003, dated 2014).

Experiments:
Type in all cases: in vivo
[1] = test system: giant foxtail (Setaria faberii); test: Test B pre/postemergence
Method in brief: (§1)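 Greenhouse whole-plant test; surfactant-containing non-phytotoxic solvent formulation; pre- and postemergence applications made simultaneously; post plants 2–18 cm, 1- to 4-leaf; visual scoring at 13–15 days on 0–100 scale relative to controls.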

[2] = test system: lambsquarters (Chenopodium album); test: Test B pre/postemergence
Method in brief: as §1

corn (Zea mays) = test: Test B pre/postemergence
Method in brief: as §1

[3] = test system: Surinam grass (Brachiaria decumbens); test: Test B pre/postemergence
Method in brief: as §1

[4] = test system: barnyardgrass (Echinochloa crus-galli); test: Test B pre/postemergence
Method in brief: as §1

[5] = test system: velvetleaf (Abutilon theophrasti); test: Test B pre/postemergence
Method in brief: as §1

[6] = test system: morningglory (Ipomoea coccinea); test: Test B pre/postemergence
Method in brief: as §1

[7] = test system: wheat (Triticum aestivum); test: Test B pre/postemergence
Method in brief: as §1

[8] = test system: cocklebur (Xanthium strumarium); test: Test B pre/postemergence
Method in brief: as §1

[9] = test system: crabgrass (Digitaria sanguinalis); test: Test B pre/postemergence
Method in brief: as §1

[10] = test system: pigweed (Amaranthus retroflexus); test: Test B pre/postemergence
Method in brief: as §1

wild oat (Avena fatua) = test: Test B postemergence; conditions: for Oat, Wild plant response rating: 125 g ai/ha, scale 0 to 100 (0 no effect, 100 complete control); for Plant response rating, Oat, Wild: 500 g ai/ha, scale 0 to 100
Method in brief: as §1

[11] = test system: blackgrass (Alopecurus myosuroides); test: Test B postemergence; conditions: for Blackgrass plant response rating: 125 g ai/ha, scale 0 to 100 (0 no effect, 100 complete control); for Plant response rating, Blackgrass: 500 g ai/ha, scale 0 to 100
Method in brief: as §1

rice (Oryza sativa) = test: Test B flooded paddy test; conditions: Flood, 1000 g ai/ha; scale 0 to 100
Method in brief: (§2)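 Rice, umbrella sedge, duck salad and barnyardgrass grown to 2-leaf stage under flooded paddy conditions and treated with formulated test chemicals. Kept in greenhouse 13–15 days, then visually rated against untreated controls on a 0–100 scale (0 no effect, 100 complete control).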

[12] = test system: duck salad (Heteranthera limosa); test: Test B flooded paddy test; conditions: Flood, 1000 g ai/ha; scale 0 to 100
Method in brief: as §2

[13] = test system: barnyardgrass (Echinochloa crus-galli); test: Test B flooded paddy test; conditions: Flood, 1000 g ai/ha; scale 0 (no effect) to 100 (complete control)
Method in brief: as §2

[14] = test system: umbrella sedge (Cyperus difformis); test: Test B flooded paddy test; conditions: Flood, 1000 g ai/ha; scale 0 to 100
Method in brief: as §2

[15] = Postemergence, 125 g ai/ha, scale 0 to 100 (0 no effect, 100 complete control)
[16] = Postemergence, 500 g ai/ha, scale 0 to 100
[17] = Preemergence, 125 g ai/ha, scale 0 to 100 (0 no effect, 100 complete control)
[18] = Preemergence, 500 g ai/ha, scale 0 to 100 (0 no effect, 100 complete control)

Nc1nc(C2CC2)nc(C=NO)c1Br [Compound 27]
0: Plant response rating, Foxtail, Giant [1, 17] | Corn plant response rating (corn (Zea mays); [15]) | Surinam Grass plant response rating [3, 15] | Plant response rating, Surinam Grass [3, 16] | Plant response rating, Surinam Grass [3, 17] | Barnyardgrass plant response rating [4, 15] | Plant response rating, Barnyardgrass [4, 16] | Plant response rating, Barnyardgrass [13]
90: Plant response rating, Lambsquarters [2, 16] | Plant response rating, Lambsquarters [2, 17] | Velvetleaf plant response rating [5, 18] | Plant response rating, Morningglory [6, 16] | Morningglory plant response rating [6, 18] | Cocklebur plant response rating [8, 18] | Plant response rating, Pigweed [10, 17]
100: Lambsquarters plant response rating [2, 18] | Cocklebur plant response rating [8, 15] | Plant response rating, Cocklebur [8, 16] | Pigweed plant response rating [10, 18]
80: Lambsquarters plant response rating [2, 15] | Plant response rating, Velvetleaf [5, 17] | Plant response rating, Morningglory [6, 17] | Plant response rating, Cocklebur [8, 17]
30: Plant response rating, Foxtail, Giant [1, 16] | Plant response rating, Barnyardgrass [4, 17] | Plant response rating, Wheat [7, 16] | Plant response rating, Crabgrass [9, 17] | Plant response rating, Oat, Wild (wild oat (Avena fatua)) | Blackgrass plant response rating [11] | Plant response rating, Blackgrass [11]
10: Plant response rating, Corn (corn (Zea mays); [17]) | Plant response rating, Wheat [7, 17] | Crabgrass plant response rating [9, 15] | Plant response rating, Crabgrass [9, 16]
70: Surinam Grass plant response rating [3, 18] | Plant response rating, Velvetleaf [5, 16] | Morningglory plant response rating [6, 15] | Crabgrass plant response rating [9, 18] | Plant response rating, Pigweed [10, 16]
20: Foxtail, Giant plant response rating [1, 15] | Plant response rating, Corn (corn (Zea mays); [16]) | Wheat plant response rating [7, 15] | Oat, Wild plant response rating (wild oat (Avena fatua)) | Plant response rating, Rice (rice (Oryza sativa))
50: Corn plant response rating (corn (Zea mays); [18]) | Wheat plant response rating [7, 18]
60: Barnyardgrass plant response rating [4, 18] | Velvetleaf plant response rating [5, 15] | Pigweed plant response rating [10, 15] | Plant response rating, Ducksalad [12] | Plant response rating, Sedge, Umbrella [14]
40: Foxtail, Giant plant response rating [1, 18]

COC(=O)c1nc(C2CC2C)nc(N)c1Br (stereo not shown) [Compound 28]
10: Surinam Grass plant response rating [3, 15] | Plant response rating, Barnyardgrass [4, 17] | Plant response rating, Wheat [7, 16] | Plant response rating, Wheat [7, 17] | Plant response rating, Oat, Wild (wild oat (Avena fatua)) | Blackgrass plant response rating [11]
90: Lambsquarters plant response rating [2, 15] | Plant response rating, Lambsquarters [2, 16] | Plant response rating, Velvetleaf [5, 16] | Velvetleaf plant response rating [5, 18] | Morningglory plant response rating [6, 15] | Plant response rating, Morningglory [6, 16] | Morningglory plant response rating [6, 18] | Cocklebur plant response rating [8, 15] | Cocklebur plant response rating [8, 18] | Plant response rating, Pigweed [10, 16] | Pigweed plant response rating [10, 18]
20: Foxtail, Giant plant response rating [1, 15] | Barnyardgrass plant response rating [4, 15]
80: Plant response rating, Lambsquarters [2, 17] | Plant response rating, Velvetleaf [5, 17] | Plant response rating, Morningglory [6, 17] | Plant response rating, Cocklebur [8, 17] | Crabgrass plant response rating [9, 18] | Pigweed plant response rating [10, 15] | Plant response rating, Pigweed [10, 17]
70: Velvetleaf plant response rating [5, 15] | Plant response rating, Crabgrass [9, 17]
100: Lambsquarters plant response rating [2, 18] | Plant response rating, Cocklebur [8, 16]
30: Plant response rating, Foxtail, Giant [1, 17] | Barnyardgrass plant response rating [4, 18] | Crabgrass plant response rating [9, 15] | Plant response rating, Blackgrass [11] | Plant response rating, Ducksalad [12]
50: Foxtail, Giant plant response rating [1, 18] | Plant response rating, Surinam Grass [3, 16] | Plant response rating, Barnyardgrass [4, 16] | Plant response rating, Crabgrass [9, 16]
40: Plant response rating, Foxtail, Giant [1, 16] | Wheat plant response rating [7, 18]
0: Corn plant response rating (corn (Zea mays); [15]) | Plant response rating, Corn (corn (Zea mays); [16]) | Plant response rating, Corn (corn (Zea mays); [17]) | Corn plant response rating (corn (Zea mays); [18]) | Wheat plant response rating [7, 15] | Oat, Wild plant response rating (wild oat (Avena fatua)) | Plant response rating, Rice (rice (Oryza sativa)) | Plant response rating, Barnyardgrass [13] | Plant response rating, Sedge, Umbrella [14]
60: Surinam Grass plant response rating [3, 18]
